Experimental data from PMC11267282, “Ultrashort‐Peptide‐Responsive Gene Switches for Regulation of Therapeutic Protein Expression in Mammalian Cells” (Advanced Science, 2024).
“Also recorded” adds a separate entry of the source. Where a SMILES comes first, the peptide text is derived from it.

Columns and labels:
[1] = test system: engineered mammalian cells; assay: Resazurin-based cell viability assay
Method: Cells were incubated with resazurin (cat. no. R7017, Sigma‐Aldrich, USA) at a concentration of 50 µg ml^−1 for 2 h. Then fluorescence was assayed with a plate reader (Tecan Spark, Tecan Group Ltd., Switzerland) at excitation and emission wavelengths of 540 and 590 nm, respectively. The fluorescence intensity of non‐induced cells was set to 100%.

HEK-293T cells [2] = assay: Constitutive recombinant SEAP production (pJH3); type: cell-based, human; settings: pJH3-transfected, 10-250 µM, 48 h, n = 4
Method: (§1) HEK‐293T cells were seeded in a 10 cm diameter dish at a density of 2.5 × 10^5 cells/ml. After 24 h of culture, the cells were transfected with 35 µg of pJH3 (PhCMV‐SEAP‐pA) overnight, then resuspended and evenly distributed into two 24‐well plates. The treatment groups were treated with XIP at the indicated concentration. Samples were collected at successive time points for two days to quantify viable cells and SEAP production.
SEAP reporter levels in cell culture supernatants were quantified using a colorimetric assay. In brief, 20 µl of cell culture supernatant was mixed with 80 µl of PBS buffer (cat. no. 14190144, ThermoFisher) and heat‐inactivated at 65 °C for 30 min. Then 80 µl of 2x SEAP assay buffer (20 mM homoarginine, 1 mM MgCl2, 21% diethanolamine, pH 9.8) was mixed with 20 µl of substrate solution, and 100 µl of the buffer‐substrate mixture was added to 100 µl of the diluted heat‐inactivated sample. Absorbance at 405 nm was recorded using a plate reader (Tecan Spark, Tecan Group Ltd., Switzerland) for 30 min at 37 °C to determine the SEAP levels.

[3] = Membrane penetration inferred from intracellular gene switch activation; type: in vitro ADME; settings: HEK-293T with intracellular ComR switch; inferred from SEAP induction
Method: Human embryonic kidney cells (HEK‐293T, ATCC: CRL‐11268), human telomerase‐immortalized mesenchymal stem cells (hMSC‐TERT),^[ [56] ^] human fibrosarcoma cells (HT‐1080, ATCC: CCL‐121), human cervical adenocarcinoma cells (HeLa, ATCC: CCL‐2), Chinese hamster ovary cells (CHO‐K1, ATCC: CCL‐61), baby hamster kidney cells (BHK‐21, ATCC: CCL‐10), and human liver cancer cells (Hep G2, ATCC: CRL‐11997) were cultured in Dulbecco's modified Eagle's medium (DMEM, cat. no. 52100–39, Thermo Fisher Scientific) containing 10% fetal bovine serum (FBS, cat. no. F7524, lot no. 022M3395, Sigma‐Aldrich) and 1% (v/v) streptomycin/penicillin (cat. no. L0022, Biowest). All mammalian cells were grown at 37 °C in a humidified atmosphere containing 5% CO2. For all transient transfections, 15 000 cells were seeded per well of a 96‐well plate (cat. no. 3599, Corning Inc. Life Sciences) overnight. Cells were transfected by mixing 100 ng of DNA and polyethyleneimine (PEI, 24765‐2, Polysciences) in a ratio of 1:4. […] The cell density was calculated using a cell counter (CellDrop BF Brightfield Cell Counter, DeNovix Inc.)
SEAP reporter levels in cell culture supernatants were quantified using a colorimetric assay. […] Absorbance at 405 nm was recorded using a plate reader (Tecan Spark, Tecan Group Ltd., Switzerland) for 30 min at 37 °C to determine the SEAP levels.

[4] = test system: T1D mice with HEK-XIP implants; assay: Serum inflammatory cytokines (ELISA); type: in vivo, mouse; settings: four weeks after implantation, n = 5
Method: The concentrations of interferon gamma (IFN‐γ), interleukin‐6 (IL‐6), and tumor necrosis factor alpha (TNF‐α) in mouse serum were assessed by the use of specific enzyme‐linked immunosorbent assay (ELISA) kits. IFN‐γ levels were analyzed using the IFN gamma mouse ELISA kit (cat. no. ab282874, Abcam), IL‐6 levels were determined with the IL‐6 mouse ELISA kit (cat. no. ab100712, Abcam), and TNF‐α levels were quantified utilizing the TNF alpha mouse ELISA kit (cat. no. BMS607HS, ThermoFisher). Freund's Complete Adjuvant (cat. no.: 344289, Sigma‐Aldrich) and lipopolysaccharides (cat. no.: L2630‐10MG, Sigma‐Aldrich) were utilized to induce cytokine production as positive controls. Blood samples were collected from mice treated with adjuvant and LPS 24 hours post‐treatment. The quantification of cytokines from these groups was conducted using the same ELISA kit.

HEK-293T cells [5] = assay: Cell growth kinetics of HEK-293 cells; type: cell-based, human; settings: non-transformed HEK-293T, 10-250 µM, 48 h, n = 4
Method: as §1

[6] = test system: CD4 / CD8 T cells of immunized mice; assay: T-cell response, intracellular cytokine staining; type: in vivo, mouse; settings: FACS intracellular cytokine staining, spleen and draining lymph nodes, n = 3
Method: Mice were immunized at 2‐week intervals.
Isolated lymphocytes from spleens and lymph nodes were placed in a U‐bottom 96‐well plate and resuspended in 100 µl complete RPMI‐1640 medium, which contains FBS (10% v/v), HEPES (pH 7.2∼7.5, 1% v/v, Gibco), penicillin/streptomycin (1% v/v, Gibco), sodium pyruvate (1% v/v, Gibco) and 2‐mercaptoethanol (0.1% v/v, Gibco). Cells were stimulated with 1 µM cognate peptides or with Cell Stimulation Cocktail (a cocktail of phorbol 12‐myristate 13‐acetate (PMA) and ionomycin, Invitrogen) as positive controls at 37 °C for 4 h, in the presence of 10 µM brefeldin A (MedChemExpress) to inhibit cytokine secretion. Next, the cells were washed with 150 µl FACS buffer, and centrifuged with 1,500 g for 2 min. The supernatant was discarded and the cells were blocked with anti‐CD16/32 antibody (1:100, 93, 101302, BioLegend) in 20 µl/well FACS buffer at 4 °C for 15 min. Then 20 µl/well antibody cocktail containing anti‐CD3ε (1:500, 17A2, 100306, BioLegend), anti‐CD4 (1:500, RM4‐5, 100526, BioLegend), anti‐CD8β (1:500, YTS256.7.7, 126606, BioLegend), and anti‐CD45 (1:500, S18009F, 157211, BioLegend) was added to the cell mixture for 20 min incubation at 4 °C. […] Gate margins were determined on the basis of isotype controls and fluorescence‐minus‐one controls.

C57BL/6 mice = assay: Antibody analysis for peptide immunogenicity; settings: s.c., three doses of 5 mg kg−1 at two-week intervals, with Freund's adjuvant, OD450, n = 3
Method: Eight‐week‐old wild‐type male mice were immunized for peptide immunogenicity assessments. Briefly, peptide solution was premixed 1:1 with Freund's adjuvant in a total volume of 400 µl by thorough vigorous shaking. Then peptide/adjuvant mixes were injected subcutaneously in 30 min at a dose of 5 mg kg^−1. Mice were immunized at 2‐week intervals. Negative controls (mock‐immunized) were also included in the study. One week after the third dose of immunization, blood was sampled for antibody analysis.
For antibody analysis, the peptides were coated on the EIA/RIA plate (cat. no. 3590, Corning Inc. Life Sciences) in carbonate coating buffer (cat. no. CB01100, ThermoFisher) at 4 °C overnight. The next day the plate was blocked with 20% nonfat milk (cat. no. A0830,1000, AppliChem Panreac) for 24 h at 4 °C, and incubated with antibodies at the indicated dilution or at 37 °C for 1 h. Next, horseradish peroxidase‐linked anti‐mouse IgG (cat. no. LNA931V, GE Healthcare, USA) was added to the plate at a dilution of 1:1000 for 1 h at 37 °C. Between each step, the plate was washed with PBS at least three times. Then, 100 µl ultra TMB substrate solution (cat. no. 34028, ThermoFisher) was added to the plate at room temperature for 15 min, followed by the addition of 50 µl of stop solution (2 M H2SO4). The OD450 was measured by a plate reader (Tecan Spark, Tecan Group Ltd., Switzerland). Mouse anti‐HA antibody (cat. no. 901523, BioLegend, USA, 1:1000 dilution) was used as a positive control.

## CC[C@H](C)[C@H](NC(=O)[C@H](CCSC)NC(=O)[C@H](Cc1ccccc1)NC(=O)[C@H](Cc1ccccc1)NC(=O)[C@@H]1CCCN1C(=O)[C@@H](N)C(C)C)C(=O)N[C@@H](Cc1ccc(O)cc1)C(=O)N[C@@H](Cc1ccc(O)cc1)C(=O)O [XIP, sigX/comX-inducing peptide] (H-VPFFMIYY-OH)
[1]; ComREXTRA-expressing HEK-293T, 50/200/500 µmol/L, 24 h, n = 4
  Cell viability under overstimulation: ns and no significant difference of cell viability
[1]; HEK-293T / HEK-XIP / mammalian cells, concentration range tested
  Cytotoxicity (result in words): no significant impact on cell viability
[1]; engineered HEK-293T, ComR operator variants, 150 and 500 µmol/L, n = 4
  Cell viability (significance): ns
[1]; seven cell lines expressing ComREXTRA-based system, 250 μM, n = 4
  Cell viability (significance): ns
[1]; seven cell lines with first system (HEK-293T, hMSC-TERT, HT-1080, HeLa, CHO-K1, BHK21, HepG2), 250 μM, n = 4
  Cell viability (significance): ns
HEK-293T cells [2]
  Effect on constitutive SEAP production: ns and negligible effect
[3]
  Membrane penetration: penetration ability across the mammalian cell membrane; also recorded: efficiently traverses the mammalian cell membrane
[4]; vs non-induced
  Serum IFN-γ (significance): ns
  Serum TNF-α (significance): ns
[4]; undetectable
  Serum IL-6: Below 0.82 pg/ml
HEK-293T cells [5]
  Effect on growth kinetics: ns and negligible effect
[6]
  Peptide-specific T-cell response: no peptide‐specific T‐cell response was detected
C57BL/6 mice
  Antibody response: no detectable antibodies’ response
C57BL/6 mice; listed as XIP_WT
  Antibody response: ns
